Patent US10906904B2, “ADO-resistant cysteamine analogs and uses thereof” (HORIZON ORPHAN LLC, priority 2015, dated 2021)
Like-named read-outs stand apart in the source and are kept apart here.

How the values were obtained:
Cystine reactivity assay = assay: Cystine reactivity assay; design: Cystine Reactivity: unit not given here; details: for Cystine Reactivity: Tables 1-3; for reactivity with cystine compared to cysteamine (in words): text summary of Tables 1-3
Method in brief: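 3 mM test compound incubated with 100 nM BODIPY FL L-cystine in phosphate buffer, pH 7.4, 30 °C; S–S cleavage relieves quenching, raising fluorescence. Rate taken as slope (RFU/min) of linear fit over time, expressed as percentage of 3 mM cysteamine.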

human recombinant ADO = molecular target: T1, human recombinant ADO (Homo sapiens, UniProt Q96SZ5); format: in vitro ADME
T1 sequence (Q96SZ5 1-270): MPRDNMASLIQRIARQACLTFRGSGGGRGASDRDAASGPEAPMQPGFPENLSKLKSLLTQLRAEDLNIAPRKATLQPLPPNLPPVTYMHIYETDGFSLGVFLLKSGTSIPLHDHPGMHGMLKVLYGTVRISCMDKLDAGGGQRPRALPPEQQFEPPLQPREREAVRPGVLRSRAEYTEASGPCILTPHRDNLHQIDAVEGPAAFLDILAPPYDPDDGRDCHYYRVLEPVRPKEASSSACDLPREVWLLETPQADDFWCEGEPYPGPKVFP
Method in brief: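 Test compound (15 mM) incubated with 60 μg/ml human recombinant ADO and 20 nM O2-sensitive fluorescent probe at 37 °C in sealed chamber. Initial rate of fluorescence increase (ex 380/em 650 nm) gave oxygen consumption, expressed relative to 15 mM cysteamine.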

[1] = test system: cystinotic human fibroblasts; assay: Cystine depletion assay; format: cell-based; details: for cystine depletion levels (in words): compared to cysteamine; for Cystine depletion: compound at 50 μM or 100 μM, Tables 1-3
Method in brief: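 Cystinotic human fibroblasts treated with compound at 50 μM or 100 μM for 60 min at 37° C. After homogenisation and acid protein precipitation, cystine measured by HILIC LC-MS/MS and normalised to protein. Depletion expressed as percent of that achieved by cysteamine at similar concentration.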

in vivo = details: mouse, 10 mg
Procedure: (§1) Pharmacokinetic parameters of a test compound in a rodent species (mouse and/or rat) were determined by administering a test compound at 2 and 10 mg free base equivalents per kg via the intravenous and oral gavage route to groups of three animals per route.
(§2) Blood samples were taken at various times after administration, plasma prepared, and submitted to analysis for parent drug using a qualified LC-MS-MS assay. Pharmacokinetics parameters derived from the plasma analytical data were determined using non-compartmental analysis.

in vitro = details: rat
Procedure: Rat hepatocytes were used to model in vivo hepatic clearance of the compounds by the ADO enzyme. Briefly, a Hepatocyte Stability Assay was carried out using cryopreserved rat hepatocytes.

[2] = Rodent pharmacokinetic assay (rat); format: in vivo; details: plasma, 2 and 10 mg free base equivalents per kg, intravenous and oral gavage
Procedure: as §1, §2

[3] = Rodent pharmacokinetic assay (mouse); details: plasma, 10 mg
Procedure: as §1, §2

ADO metabolism (human recombinant ADO; human, 15 mM) [%]	bioavailability ([2]; read-out: Rat PK Bioavailability) [%]	half-life ([2]; read-out: Rat PK-Half life (converted)) [h]	microsomal CLint at 3 μM (in vitro; cryopreserved rat hepatocytes) [µL/min/mg]	half-life [3] [h]	bioavailability ([3]; oral) [%]	SMILES	Cystine Reactivity (Cystine reactivity assay)	reactivity with cystine compared to cysteamine (in words) (Cystine reactivity assay)	ADO metabolism (human recombinant ADO; relative to 15 mM cysteamine, Tables 1-3) [%]	metabolism by ADO compared to cysteamine (in words) (human recombinant ADO; text summary of Tables 1-3)	cystine depletion levels (in words) [1]	Cystine depletion [1] [%]	bioavailability (in vivo) [%]	half-life (in vivo) [h]	microsomal CLint (in vitro; hepatocytes) [µL/min/mg]	metabolism by ADO compared to cysteamine (in words) (human recombinant ADO)
–	–	–	–	–	–	SCCN1CCCC1 [Compound 2b]	12392	increased reactivity with cystine compared to cysteamine	4	significantly reduced metabolism by ADO compared to cysteamine	similar	99	33	0.4	15700	–
1	34	2.3	12600	3.9	38	CN1CCC(S)CC1 [Compound 2d]	7332	increased reactivity with cystine compared to cysteamine	–	–	slightly decreased	79	–	–	–	significantly reduced metabolism by ADO compared to cysteamine
